Results on one compound are retold here after patent publication US20200352889A1, “CYSTATHIONINE COMPOSITIONS AND METHODS OF TREATMENT FOR HEALTH CONDITIONS” (THE REGENTS OF THE UNIVERSITY OF COLORADO, A BODY CORPORATE, priority 2011, published 2020).

Structures are written as SMILES. “Also recorded” adds a separate entry of the source.

One assay relates to 293AD cells. In words: Tunicamycin-induced cell death, LDH release and phase-contrast, 293AD cells. Type of assay: cell-based, human. The protocol: (§1) Cells were seeded in triplicate at ˜75% confluence and pre-treated with either PPG) (5 mM), Cystathionine (1 mM) or with just complete media (DMEM, 10% FBS) as a control. After 24 hr pre-treatment, cells looked normal, with minimal floating cells. Fresh media with 1% FBS was then added to each well, the cells were further treated with Tm (either 5 or 10 ug)/ml. After 18 hr. treatment with Tunicamycin, cells were photographed under phase-contrast with a Zeiss Axiovert 25 microscope for evidence of dead floating cells. Cells from the group treated solely with tunicamycin became strikingly hyper-refringent, detached from the substratum and floated in the media. […] To further evaluate a role for cystathionine in resisting the induction of cell death by tunicamycin, cell lysis was quantified by assaying lactate dehydrogenase (LDH) release. The enzyme activity was determined spectrophotometrically and the amount of enzyme leak was expressed as a percentage of the LDH activity observed in untreated control cells.
HepG2, 293AD and a23 cells were seeded in triplicate at ˜75% confluence and were pre-treated with either propargylglycine (PPG) (5 mM) or cystathionine (5 mM) in complete media (DMEM, 10% FBS). After 24 hours, fresh media with 1% FBS was added to each well. Cells were then further treated with tunicamycin (either 5 or 10 ug/ml) for 18 hr treatment. Cells were subsequently photographed under phase-contrast with a Zeiss Axiovert 25 microscope for evidence of dead floating cells. To quantify cell death the media supernatant was collected for LDH release assay using a kit from Roche Applied Science (Cat.No.11 644 793 001) according to the manufacturer's standard protocol where cytotoxicity (%)=((experimental value-low control/(high control-low control))×100.
as §1, with “24 hr.” for “24 hr”
(In general: Release of lactate dehydrogenase indicates damage to the cell membrane.)

The test system of another assay is a23 cells. In words: Tunicamycin-induced cell death, LDH release, transsulfuration negative a23 cells. Type of assay: cell-based, Chinese hamster. The note with it: CBS and CGL negative, p=0.7301. An excerpt:
However, examination of a direct effect of exogenously added cystathionine is not currently possible in a whole animal model because of complications with the compounds solubility and rapid kinetics of its excretion. In order to investigate the direct effects of cystathionine against ER stress-induced cell death, the cytotoxicity of tunicamycin in the human embryonic kidney cell line 293AD and the human hepatoma cell line HepG2 in the presence and absence of both PPG and exogenously added cystathionine was examined. Preliminary experiments confirmed that both of these cell lines express both CBS and CGL (data not shown). In order to investigate the possible protective effects of cystathionine in the absence of transsulfuration, these experiments were repeated with the CBS and CGL negative Chinese hamster fibroblast line a23 (6).
Cells were seeded in triplicate at ˜75% confluence and pre-treated with either PPG) (5 mM), Cystathionine (1 mM) or with just complete media (DMEM, 10% FBS) as a control. […] To further evaluate a role for cystathionine in resisting the induction of cell death by tunicamycin, cell lysis was quantified by assaying lactate dehydrogenase (LDH) release. The enzyme activity was determined spectrophotometrically and the amount of enzyme leak was expressed as a percentage of the LDH activity observed in untreated control cells. […]

Another assay deals with Grp78, Grp94, GADD153. The assay can be described thus: Northern and Western blotting of UPR induction in 293AD cells. Type of assay: cell-based, human. The protocol:
To further assess the effect of cystathionine upon induction of the UPR and GADD153 by ER stress Northern and Western blotting experiments were performed.
Immunoblot analysis of total cell lysates was performed as described previously (4,14). Briefly, following incubation with the appropriate primary and horseradish peroxidase-conjugated secondary antibodies (Affinity Biologicals, Ancaster, ON, Canada) membranes were developed using the Renaissance® Western Blot Chemiluminescence Reagent Kit, (Perkin Elmer, Woodbridge, ON, Canada). Proteins were transferred on a nitrocellulose membrane, and probed with anti-KDEL monoclonal antibody, which recognizes Hsp70, GRP78 and GRP94 that was purchased from Stressgen Biotechnologies (SPA-827) or anti GADD153 (Santa Cruz Biotech #SC-7351). Anti-β-Actin monoclonal antibody (Sigma) was used as a loading control.
Total RNA was isolated from 293AD cells using the RNeasy® total RNA kit (Qiagen, Santa Clarita, Calif.) and resuspended in diethylpyrocarbonate (DEPC)-treated water. Quantification and purity of the RNA was assessed by A260/A280 absorption, and RNA samples with ratios greater than 1.6 were stored at […] for further analysis. Total RNA (10 μg/lane) was fractionated on 2.2 mol/L formaldehyde/1.2% agarose gels and transferred overnight onto Zeta-Probe® GT nylon membranes (Bio-Rad, Toronto, Canada) in 10×SSC. The RNA was cross-linked to the membrane using a UV crosslinker (PDI Bioscience, Toronto, Canada) before hybridization. Specific probes were generated by labeling cDNA fragments with [−32P]dCTP (NEN) using a random primed DNA labeling kit (Boehringer Mannheim, Laval, Canada). The cDNA probe for GADD153 (no. AA627477) was obtained from Genome Systems (St Louis, Mo.). The cDNA probe used for GRP78 is a full length cDNA clone that has been described previously (4). After overnight hybridization at 43° C., the membranes were washed as described by the manufacturer, exposed to x-ray film, and subjected to autoradiography.
In general terms: A western blot detects proteins with antibodies after separation by electrophoresis.

In assay [1] the test system is WT mice treated with thapsagargin. In words: Thapsagargin-induced acute tubular necrosis in WT mice in the presence and absence of PPG. To be noted: single IP thapsagargin + daily PPG, three days. In kind it is in vivo, mouse. An excerpt:
Wild type mice (WT; n=6) to a single sub-lethal intraperitoneal injection of thapsagargin in the presence and absence of the CGL inactivating compound propargylglycine (PPG). WT mice were randomly assigned to one of four treatment groups (n=6 for each group): 1). control, IP injected with PBS (See FIG. 13, Panel A); 2). I.P. injection with PPG (See FIG. 13, Panel B); 3). single I.P […] thapsagargin (See FIG. 13, Panel C); and 4). thapsagargin+PPG (See FIG. 13, Panel D). In groups 2 and 4, PPG treatment was maintained by daily injection until sacrifice at three days post vehicle/thapsagargin injection. After the completion of this treatment regime, all mice were anaesthetized (isoflourane/oxygen) and sacrificed by decapitation.
Wild type mice (WT; n=6) to a single sub-lethal intraperitoneal injection of thapsagargin in the presence and absence of the CGL inactivating compound propargylglycine (PPG). WT mice were randomly assigned to one of four treatment groups (n=6 for each group): 1). control, IP injected with PBS (See Panel A); 2). I.P. injection with PPG (See Panel B); 3). single I.P […] thapsagargin (See Panel C); and 4). thapsagargin+PPG (See Panel D). In groups 2 and 4, PPG treatment was maintained by daily injection until sacrifice at three days post vehicle/thapsagargin injection. […]

In the case of `C#CCC(N)C(=O)O` (racemic) [PPG, D,L-2-amino-4-pentynoic acid], in the assay with 293AD cells (293AD cells, tunicamycin 5 μg/ml 18 hr, 24 hr pre-treatment PPG 5 mM), the “prevention of tunicamycin-induced cell death (LDH release)” value is on record as “largely prevented”. Further, in the assay on 293AD cells (293AD cells, tunicamycin 10 μg/ml 18 hr, 24 hr pre-treatment PPG 5 mM or cystathionine 1 mM, p<0.0001), the “reduction in cell death (LDH release)” value was determined as 11 fold. Further, the “floating dead cells (phase-contrast)” value with 293AD cells (tunicamycin 18 hr after PPG or cystathionine pre-treatment) is “No floating dead cells were observed; also recorded: not evident”. Besides, in the assay on a23 cells, the “cytoprotection against tunicamycin induced cell death” value was “no significant cytoprotection”. In the assay on Grp78, Grp94, GADD153 (PPG 5 mM or cystathionine 5 mM, no tunicamycin), the “expression of Grp78, Grp94 and GADD15 in control cells” value is “Neither PPG nor exogenously added cystathionine induced expression”. For the same compound, in the assay with Grp78, Grp94, GADD153 (tunicamycin 5 and 10 μg/ml), the “scale of induction of Grp78, Grp94 and GADD153 in the presence of tunicamycin” value is reported as “Nor did either of these treatments significantly alter the scale of induction”. In addition, the “thapsagargin-induced renal morphological changes (acute tubular necrosis, histology)” value in assay [1] is “completely ablated”.
